Records with an inconclusive call do not appear. Active and inactive are the calls of the source. How the calls were made is not given here.
Tested on: H4 cells, PrP 5'UTR luciferase reporter translation
Experiment: inhibitors of PrP 5'UTR-driven reporter translation, dose response, luminescence (AID 1994)

SMILES	EC50
C#CCOCCOCCOCCNc1nc(N2CCN(C(=O)CCCCCCCCCCNC(=O)[C@H](CO)n3cc(CCCSC)nn3)CC2)nc(N2CCN(C(=O)CCCCCCCCCCNC(=O)[C@H](CCCCN)n3cc(C[C@@H](C)CC)nn3)CC2)n1	> 12000 nM (inactive)
C=C(C=O)CC1CC(O)[C@]2(C)OC3CC4OC5C[C@]6(C)O[C@]7(C)CCC8OC9C[C@]%10(C)OC%11C(C)=CC(=O)OC%11CC%10OC9C[C@@H](C)C8OC7CC6O[C@]5(C)CC5OC5C4OC3CC2O1 (some centres not stated)	1580 nM
